The record followed here is ChEMBL document CHEMBL1141204, “Carbonic anhydrase activators: X-ray crystal structure of the adduct of human isozyme II with L-histidine as a platform for the design of stronger activators” (Bioorg Med Chem Lett, 2005).

The assay has as its target Carbonic anhydrase 4 (Homo sapiens) (UniProt P22748). Nature of the assay: Activation constant against recombinant human CA IV isozyme by the esterase method. The format is functional.

Chain of Carbonic anhydrase 4 (Homo sapiens) (P22748 whole entry): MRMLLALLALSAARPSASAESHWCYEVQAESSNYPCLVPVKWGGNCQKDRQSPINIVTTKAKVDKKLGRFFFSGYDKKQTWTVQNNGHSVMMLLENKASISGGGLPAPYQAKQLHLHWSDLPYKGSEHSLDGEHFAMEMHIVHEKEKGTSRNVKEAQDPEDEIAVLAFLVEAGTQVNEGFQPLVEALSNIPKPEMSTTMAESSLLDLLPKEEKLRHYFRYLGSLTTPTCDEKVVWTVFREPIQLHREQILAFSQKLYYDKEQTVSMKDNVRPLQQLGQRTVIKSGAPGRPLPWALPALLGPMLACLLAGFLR

In the case of `N[C@@H](Cc1c[nH]cn1)C(=O)O`, the KA turned out to be 33 µM.

As for `NCCC(=O)N[C@@H](Cc1c[nH]cn1)C(=O)O`, the KA came to 15 µM.

With `N[C@@H](Cc1ccccc1)C(=O)O`, the KA was found to be 4.6 µM.

For the molecule `COC(=O)[C@@H](N)Cc1c[nH]cn1`, the KA was 23 µM.

Turning to `NCCc1c[nH]cn1`, the KA was 37 µM.
